Usually IC50 stands for the concentration needed to halve the response being measured.

The results in this text go back to patent US10479854B2, “Conjugate for treating malaria” (priority 2014, dated 2019).

In this test the test system is chloroquine-resistant Plasmodium falciparum strain (D10R). The test is described as follows: In vitro anti-malaria assay (Malstat, lactate dehydrogenase). It counts as cell-based. The settings on record: read-out: IC50(chloroquine). The method, then: In separate experiments, tyrocidine/tryptocidines conjugated to polymers 11 and 12, respectively, were administered at varying concentrations to blood samples containing cells infected with a chloroquine-resistant Plasmodium falciparum strain (D10 resistant mutant denoted D10R, IC50(chloroquine)>100 nM). For comparison purposes, the unconjugated/unmodified natural tyrocidine/tryptocidine mixture was also administered to blood infected with the same chloroquin-resistant malaria strain. FIGS. 16 and 17 show the antimalaria activity and the haemolytic activity of the tyrocidine/tryptocidine-PVP conjugates in comparison with the natural cyclodecapetide mixture. […]
P. falciparum (D10 strain) was cultured and dose-response assays were performed as previously described.^9 Briefly, parasites were cultured under an atmosphere of 3% CO2, 4% O2 and 93% N2 in RPMI-1640 media, supplemented with 25 mM HEPES, 50 mM glucose, 0.65 mM hypoxanthine, 0.048 mg/mL gentamicin, 0.2% (w/v) NaHCO3, 0.5% (w/v) Albumax II and 2% fresh human O^+ erythrocytes obtained from anonymous donors from the Western Cape Blood Blank. […] A 10 μL aliquot from each well was diluted to 100 μL with phosphate buffered saline and analysed at 405 nm, on a plate reader, to determine the quantity of released haemoglobin and haemolytic activity of the conjugates. […]

A value given as a limit tells only on which side of the number the result lay.

Regarding `CCN(CC)CCCC(C)Nc1ccnc2cc(Cl)ccc12` (stereo not shown) [chloroquine], the IC50 was > 100 nM.
